Data on 1 compound can be found in patent US20040167181A1, “Methods of treating conditions associated with an Edg-3 receptor” (priority 2003, published 2004).

This test deals with T1, Endothelin ETA (Homo sapiens, UniProt P25101).
T1 construct: expressed in transfected cells; host or cells: CHO cells
T1 sequence (P25101 21-427): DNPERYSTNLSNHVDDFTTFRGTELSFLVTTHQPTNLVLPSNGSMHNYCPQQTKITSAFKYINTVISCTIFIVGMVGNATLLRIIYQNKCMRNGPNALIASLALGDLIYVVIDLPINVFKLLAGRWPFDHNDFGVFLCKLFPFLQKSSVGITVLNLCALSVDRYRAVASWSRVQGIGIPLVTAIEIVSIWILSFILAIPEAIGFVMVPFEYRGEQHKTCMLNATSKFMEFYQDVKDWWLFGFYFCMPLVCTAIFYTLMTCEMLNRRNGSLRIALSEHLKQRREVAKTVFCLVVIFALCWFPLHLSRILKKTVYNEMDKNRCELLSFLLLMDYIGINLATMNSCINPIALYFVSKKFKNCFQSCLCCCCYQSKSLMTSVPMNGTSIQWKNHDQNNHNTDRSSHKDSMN
The test is described as follows: Radioligand binding assay, Endothelin ETA. The following applies: Human recombinant CHO cells; 0.03 nM 125 Endothelin; significance criteria ≦50% of max stimulation or inhibition. How it is done: In order to test the selectivity of compounds, various radioligand binding assays were performed using numerous non-Edg receptor targets as listed below.
A radioligand binding assay was performed using adrenergic α1 according to the method of Greengrass and Bremner 1979, Eur. J. Pharmacol. 55:323-326. A radioligand binding assay was performed using adrenergic α2 according to the method of Boyajian and Leslie, 1987, J. Pharmacol. Exp. Ther. 241:1092-1098. A radioligand binding assay was performed using adrenergic β according to the method of Feve et al., 1994, Proc. Natl. Acad. Sci. USA 91:5677-5681. A radioligand binding assay was performed using angiotensin AT2 according to the method of Whitebread et al., 1991, Biochem. Biophys. Res. Comm. 181:1365-1371. A radioligand binding assay was performed using calcium channel Type L, dihydropyridine according to the method of Ehlert et al., 1982, Life Sci. 30:2191-2202. A radioligand binding assay was performed using dopamine D2L according to the method of Bunzo et al., 1988, Nature 336:783-787. A radioligand binding assay was performed using endothelin ETA according to the method of Mihara et al., 1994, J. Pharmacol. Exp Ther. 268:1122-1127. A radioligand binding assay was performed using histamine H1 Central according to the method of Hill et al., 1978, J. Neurochem. 31:997-1004. […]
Quantitation Method: Radioligand Binding […]

Consider `Cc1c(-c2ccccc2)nc2ccccc2c1C(=O)NCc1ccc(F)cc1` [Compound 101], for which the “activity in radioligand binding assay” value is on record as “no significant activity”.
